Results on 1 molecule are retold here after US11207286B2, “Self-emulsifying composition of w3 fatty acid” (MOCHIDA PHARMACEUTICAL CO., LTD., priority 2009, dated 2021).

Data set [1] is described as follows: Pharmacokinetics in beagle. The format is in vivo. Particulars: male beagles fasted at least 18 hours, oral, 600 mg in terms of EPA-E, plasma EPA, corrected for pre-administration concentration. The method, then: The compositions of the Examples 6, 7, 9, 10, 13, and Comparative Example 2 were orally administered to 3 to 8 male beagles (34 to 45 months old having a body weight of 11 to 17 kg, Kitayama Labes Co., Ltd.) under fasting, and time course blood EPA concentration was evaluated. The test animals were fasted at least for 18 hours before the test, and each animal was administered with the composition at an amount of 600 mg in terms of the EPA-E. The blood was collected before the administration and at 1, 1.5, 2, 2.5, 3, 4, 6, 8, and 24 hours after the administration, and after separating and treating the plasma, plasma EPA concentration was measured by LC/MS/MS. The EPA-E stock solution filled in a capsule was also administered to the control group animals. […] In calculating each parameter, the value was corrected by subtracting the blood EPA concentration before the administration from the blood concentration after the administration.

Data set [2] is described as follows: Pharmacokinetics in cynomolgus monkey. The format is in vivo. Particulars: cynomolgus monkeys fasted at least 12 hours, oral, 4.5 mg/kg in terms of EPA-E, plasma EPA. How it is done:
The compositions of the Example 6 was orally administered to 6 cynomolgus monkies (2 to 5 years having a body weight of 2.70 to 4.65 kg, Hamri Co., Ltd.) under fasting, and time course blood EPA concentration was evaluated. The test animals were fasted at least for 12 hours before the test, and each animal was administered with the self-emulsifying composition at an amount of 4.5 mg/kg in terms of the EPA-E. The EPA-E stock solution filled in a capsule was also administered to the control group animals. The blood was collected before the administration and at 1, 2, 4, 6, 8, 10, 12, 24, 48, and 72 hours after the administration, and after separating and treating the plasma, plasma EPA was measured by LC/MS/MS. […] In calculating each parameter, the value was corrected by subtracting the blood EPA concentration before the administration from the blood concentration after the administration.

Data set [3] has as its system Fasted Glucose Tolerance Model Rat. The data set is described as follows: Effectiveness in fasted glucose tolerance model rat. The format is in vivo, Sprague Dawley rats. Particulars: rats fasted at least 24 hours, oral capsule 100 mg/kg in terms of EPA-E, glucose 2 g/kg 30 minutes later. How it is done: Male Sprague Dawley rats (10 week old, Charles River Laboratories Japan, Inc.) are divided into 4 groups each comprising 10 animals with even body weight and serum TG value. Control group is administered with olive oil, EPA-E group is administered with EPA-E stock solution, Example group is administered with the self-emulsifying composition of Example 6, and comparative group is administered with the composition of Comparative Example 2 by filling in the gelatin capsule and perorally administering the capsule to the animals, respectively. The test animals are fasted at least 24 hours before the administration, and each animal is administered with the composition at an amount of 100 mg/kg in terms of the olive oil or the EPA-E. 30 minutes after the administration, glucose solution in physiological saline is orally administered at 2 g/kg. Blood is periodically collected from tail vein, and plasma TG concentration and free fatty acid concentration are measured by using a commercially available assay kit. Change from the value before the glucose loading is calculated for each parameter.

For data set [4] the following is noted: on rare occasion; cited from earlier work.

Consider `CC/C=C\C/C=C\C/C=C\C/C=C\C/C=C\CCCC(=O)OCC` [EPA-E stock solution, Ethyl eicosapentaenoate ester], for which the AUC0-2 in data set [1] (0 to 2 hours) was 14.4 µg·h/mL. Also, the AUC0-24 in data set [1] (0 to 24 hours) was found to be 188.0 µg·h/mL. The molecule also gave a Cmax in data set [1] of 16600 ng/mL. In data set [2] (0 to 12 hours, corrected), this molecule registered an AUC0-12 of 46.5 µg·h/mL. Besides, the AUC0-72 in data set [2] (0 to 72 hours, corrected) was 284.5 µg·h/mL. The same molecule yielded a Cmax in data set [2] (corrected for pre-administration concentration) of 7400 ng/mL. Besides, in data set [3], the “increase in plasma TG concentration after the glucose loading” value is on record as “not observed”. In data set [4], the “side effect: nausea” value was 0.23%, the “side effect: stomach discomfort” value is on record as 0.23% and the “side effect: vomiturition” value was 0.21%.

A word on the Cmax: it is the highest concentration seen after dosing.
